Laboratory results as given in patent publication US8796333B2, “Method of using β-hydroxy-β-methylbutyrate to treat a condition” (Abbott Laboratories, priority 2005, dated 2014).

Key:
melanoma = experiment: Working example: individual treated for melanoma given HMB; type: in vivo, human; details: person; 1 g HMB (Nutritional Liquid #1) 4 times a week for a year
asthma = experiment: Working examples: individuals having or at risk for asthma given HMB; type: in vivo, human
Procedure: A person who normally has four exacerbations of asthma per year is administered 1-10 g of HMB (Nutritional Liquid #5) four times a week for a year.
A person suffering from moderate persistent asthma is tested to determine the individual's FEV1 percentage value and the value is recorded.
A person suffering from mild intermittent asthma is tested to determine the individual's FEV1 percentage value and a value of 83% is recorded. The individual is then administered 1.5-6 g of HMB 4 times (Nutritional Liquid #5) a week for a year. One year later the individual's FEV1 remains above 80% and symptoms of asthma are reduced.
The individual is administered 250 mg of HMB (Nutritional Liquid #4) once a day for 6 months.

seasonal allergies = experiment: Working examples: individuals having or at risk for seasonal allergies given HMB; type: in vivo, human
Procedure: An individual who suffers from seasonal allergies in the spring is given 0.25-1 g of HMB (Nutritional Liquid #5) four times a week for a year. The symptoms of seasonal allergies are reduced the following spring.
The individual is administered 0.1-1.5 g of HMB (Nutritional Liquid #3) once a day for 6 months.

stress = experiment: Working examples: individuals with psychological, surgical or pre-surgical stress given HMB; type: in vivo, human; details: person
Procedure: A person suffering from severe symptoms of psychological stress as a result of a burn injury is administered 500 mg (Nutritional Liquid #1) of HMB 4 times a week for a year. One year later the symptoms of psychological stress are reduced.
A person suffering from symptoms of surgical stress is administered 200 mg of HMB (Nutritional Liquid #2) 7 times a week for 2 months. Two months later the symptoms of surgical stress are reduced.
A person suffering from symptoms of pre-surgical stress is administered 200 mg of HMB (capsules) once a day for 3 weeks preceding the individual's scheduled surgery. At the end of the 3 weeks, symptoms of pre-surgical stress are reduced.

ovarian cancer = experiment: Working example: individual after chemotherapy for ovarian cancer given HMB; type: in vivo, human; details: person after chemotherapy; 2-10 g HMB (Nutritional Liquid #1) four times a week for a year
Procedure: A person who has undergone chemotherapy for ovarian cancer is administered 2-10 g of HMB (Nutritional Liquid #1) four times a week for a year.

[1] = tested on: respiratory tract infections; experiment: Working examples: respiratory infections in individuals given HMB; type: in vivo, human; details: person recovered from pneumonia; 250 mg HMB (Nutritional Liquid #1) once a day for 6 months
Procedure: A person, after conventional treatment for and recovery from pneumonia, is administered 250 mg of HMB (Nutritional Liquid #1) once a day for 6 months.
A person is training for the New York Marathon. During their training period and for 3 months following the event they take two servings per day of Nutritional formula #6 (containing 1 gram HMB per serving).

kidney tumors = experiment: Working example: individual treated for kidney tumors given HMB; type: in vivo, human; details: person; 750 mg HMB (capsules) four times a week for a year
Procedure: A person diagnosed with and has been treated for kidney tumors is administered 750 mg of HMB (capsules) four times a week for a year.

[2] = tested on: peripheral blood mononuclear cells (PBMC) stimulated with CD3/CD28; experiment: Cytokine production by PBMCs stimulated with CD3/CD28 for 24 hours, Bio-plex Cytokine Assay; type: cell-based, human
Procedure: To induce production of cytokines, PBMCs, isolated from peripheral blood of 10 normal healthy donors, are stimulated for 24 hours with the T cell stimulant CD3/CD28. Cytokine production is analyzed using a Bio-plex Cytokine Assay. The Bio-Plex technology is based on antibody-antigen interactions, wherein fluorescently labeled beads conjugated with antibody directed against the cytokine of interest bind target cytokine to the bead. This bead-cytokine complex is then exposed to a biotinylated detection antibody and a streptavidin-PE (phycoerythrin) reporter molecule. The signal from the reporter molecule is directly proportional to the amount of cytokine present, thus enabling cytokine quantification.
Each of the T cell-derived cytokines quantified in the experiment is described in the following table:
A t-test (paired sample, two-tailed) is performed in which a broad range of type 1 and type 2 cytokines are evaluated from cultures with HMB compared to cultures and without HMB.

[3] = person, moderate persistent asthma, 5-10 g HMB (Nutritional Liquid #5) 4 times a week for a year
[4] = 1 mM, 5 mM and 10 mM HMB, FIG. 3
[5] = 5 mM and 10 mM HMB, PBMC, CD3/CD28, 24 hours, vs no HMB, FIG. 1
[6] = PBMC, CD3/CD28, 24 hours, vs no HMB, FIG. 1
[7] = PBMC, CD3/CD28, 24 hours, vs no HMB, FIG. 2

CC(C)(O)CC(=O)O [HMB, β-hydroxy-β-methylbutyrate]
spread of melanoma six months later (melanoma): has not spread | signs of symptoms of asthma six months later (asthma; person with family history, no signs at start, 250 mg HMB (Nutritional Liquid #4) once a day for 6 months): still shows no signs | FEV1 one year later (asthma; person, mild intermittent asthma, baseline FEV1 83%, 1.5-6 g HMB (Nutritional Liquid #5) 4 times a week for a year): above 80% | symptoms of asthma one year later (asthma; person, mild intermittent asthma, 1.5-6 g HMB (Nutritional Liquid #5) 4 times a week for a year): reduced | FEV1 one year later (asthma; [3]): has not decreased | symptoms of asthma one year later (asthma; [3]): reduced | asthma exacerbation frequency (asthma; person, normally four exacerbations per year, 1-10 g HMB (Nutritional Liquid #5) four times a week for a year): decreases to once a year | symptoms of seasonal allergies the following spring (seasonal allergies; individual, 0.25-1 g HMB (Nutritional Liquid #5) four times a week for a year): reduced | signs of seasonal allergies six months later (seasonal allergies; person with family history, no signs at start, 0.1-1.5 g HMB (Nutritional Liquid #3) once a day for 6 months): still shows no signs | symptoms of surgical stress, two months later (stress; 200 mg HMB (Nutritional Liquid #2) 7 times a week for 2 months): reduced | symptoms of pre-surgical stress at the end of 3 weeks (stress; 200 mg HMB (capsules) once a day for 3 weeks before surgery): reduced | symptoms of psychological stress after burn injury, one year later (stress; 500 mg HMB (Nutritional Liquid #1) 4 times a week for a year): reduced | return of ovarian cancer one year later (ovarian cancer): has not returned | respiratory tract infections, including recurrence of pneumonia, during six months [1]: remains free of respiratory tract infections | spread of kidney tumor six months later (kidney tumors): has not spread | IL-2 production relative to IL-5 production [2, 4]: increased | IL-2 production relative to IL-13 production [2, 4]: increased | IL-2 production relative to IL-4 production ([2]; 5 mM and 10 mM HMB, FIG. 3): Increases | IL-2 production relative to IL-10 production ([2]; 5 mM and 10 mM HMB, FIG. 3): Increases | IL-12 production relative to IL-4 ([2]; 5 mM and 10 mM HMB, FIG. 4): Increases | IL-12 production relative to IL-5 ([2]; 5 mM and 10 mM HMB, FIG. 4): Increases | IL-12 production relative to IL-10 ([2]; 5 mM and 10 mM HMB, FIG. 4): Increases | IL-12 production relative to IL-13 ([2]; 5 mM and 10 mM HMB, FIG. 4): Increases | IFNγ production relative to IL-5 ([2]; 5 mM and 10 mM HMB, FIG. 5): increases | IL-2 production (type 1 cytokine) ([2]; 5 mM and 10 mM HMB, PBMC of 10 healthy donors, CD3/CD28, 24 hours, vs no HMB, FIG. 1): Significant dose response increases | IFNγ production (type 1 cytokine) [2, 5]: Significant dose response increases | IL-12 production (type 1 cytokine) [2, 5]: Significant dose response increases | IFNγ production relative to IL-4 ([2]; 10 mM HMB, FIG. 5): Increases | IFNγ production relative to IL-10 ([2]; 10 mM HMB, FIG. 5): Increases | IL-10 production (type 2 cytokine) ([2]; 10 mM HMB, PBMC, CD3/CD28, 24 hours, vs no HMB, FIG. 2): significant decrease | GC-CSF production [2, 6]: does not significantly affect | TNFα production [2, 6]: does not significantly affect | IL-4 production (type 2 cytokine) [2, 7]: does not significantly affect | IL-5 production (type 2 cytokine) [2, 7]: does not significantly affect | IL-13 production (type 2 cytokine) [2, 7]: does not significantly affect
